Assay results: US20230295109A1, “PYRIDINONE COMPOUNDS FOR THE TREATMENT OF AUTOIMMUNE DISEASE” (F. Hoffmann-La Roche AG, priority 2020, published 2023)
pIC50: −log10 of the molar value. Like-named read-outs stand apart in the source and are kept apart here.

How the values were obtained:
hERG channel = biological target: T1, hERG channel (Homo sapiens, UniProt Q12809); assay: hERG channel inhibition assay (patch-clamp, CHOhERG cells); type: cell-based; conditions: for pIC50 / IC20: CHOhERG cells, whole-cell patch-clamp; for IC20: human, CHO cells stably expressing hERG (CHOhERG); for hERG IC20 / TLR8 IC50 / hERG IC20 / TLR9 IC50 / hERG IC20 /TLR7 IC50: safety ratio
T1 construct: expressed in transfected cells; host or cells: CHO (Chinese hamster ovary), CHOhERG
Experimental: The hERG K^+ channels were cloned in humans and stably expressed in a CHO (Chinese hamster ovary) cell line. CHOhERG cells were used for patch-clamp (voltage-clamp, whole-cell) experiments. Cells were stimulated by a voltage pattern to activate hERG channels and conduct IKhERG currents (rapid delayed outward rectifier potassium current of the hERG channel). After the cells were stabilized for a few minutes, the amplitude and kinetics of IKhERG were recorded at a stimulation frequency of 0.1 Hz (6 bpm). Thereafter, the test compound was added to the preparation at increasing concentrations. For each concentration, an attempt was made to reach a steady-state effect, usually, this was achieved within 3-10 min at which time the next highest concentration was applied. The amplitude and kinetics of IKhERG are recorded in each concentration of the drug which were compared to the control values (taken as 100%). (references: Redfern WS, Carlsson L, Davis AS, Lynch WG, MacKenzie I, Palethorpe S, Siegl PK, Strang I, Sullivan AT, Wallis R, Camm AJ, Hammond TG. 2003; Relationships between preclinical cardiac electrophysiology, clinical QT interval prolongation and torsade de pointes for a broad range of drugs: evidence for a provisional safety margin in drug development. Cardiovasc. Res. 58:32-45, Sanguinetti MC, Tristani-Firouzi M. 2006; hERG potassium channels and cardiac arrhythmia. Nature 440:463-469, Webster R, Leishman D, Walker D. 2002; Towards a drug concentration effect relationship for QT prolongation and torsades de pointes. Curr. Opin. Drug Discov. Devel. 5:116-26).

[1] = Single dose pharmacokinetics (PK) study in male Wister-Han rats; type: in vivo
Experimental: Pharmacokinetic properties of selected compounds were assessed by single dose PK studies in Male Wister-Han Rats (vendor: Beijing Vital River Laboratory Animal Technology Co., Ltd). Briefly, two groups of animals were administered a single dose of respective compound intravenously (IV, bolus) at 2 mg/kg or orally (PO, by gavage) at 10 mg/kg. Blood samples (approximately 150 µL) were collected via Jugular vein at 5 min (only for IV), 15 min, 30 min, 1 h, 2 h, 4 h, 7 h and 24 h post-dose. Blood samples were placed into tubes containing EDTA-K2 anticoagulant and centrifuged at 3000 rpm for 15 min at 4° C. to separate plasma from the samples. After centrifugation, the resulting plasma was transferred to clean tubes for bioanalysis with LC/MS/MS. The pharmacokinetic parameters were calculated using non-compartmental analysis. The volume of distribution (Vss), half-life (T½) and clearance (CL) were obtained based on the plasma concentration-time curve after IV dose. The peak concentration (Cmax) was recorded directly from experimental observations after PO dose. The area under the plasma concentration-time curve (AUC0-last) was calculated using the linear trapezoidal rule up to the last detectable concentration. The bioavailability (F) was calculated based on the dose normalized AUC0-last after IV and PO dose.
The Vss of a drug represents the degree to which a drug is distributed in body tissue rather than the plasma. Vss is directly proportional with the amount of drug distributed into tissue. A higher Vss indicates a greater amount of tissue distribution.

T1 sequence (Q12809 whole entry): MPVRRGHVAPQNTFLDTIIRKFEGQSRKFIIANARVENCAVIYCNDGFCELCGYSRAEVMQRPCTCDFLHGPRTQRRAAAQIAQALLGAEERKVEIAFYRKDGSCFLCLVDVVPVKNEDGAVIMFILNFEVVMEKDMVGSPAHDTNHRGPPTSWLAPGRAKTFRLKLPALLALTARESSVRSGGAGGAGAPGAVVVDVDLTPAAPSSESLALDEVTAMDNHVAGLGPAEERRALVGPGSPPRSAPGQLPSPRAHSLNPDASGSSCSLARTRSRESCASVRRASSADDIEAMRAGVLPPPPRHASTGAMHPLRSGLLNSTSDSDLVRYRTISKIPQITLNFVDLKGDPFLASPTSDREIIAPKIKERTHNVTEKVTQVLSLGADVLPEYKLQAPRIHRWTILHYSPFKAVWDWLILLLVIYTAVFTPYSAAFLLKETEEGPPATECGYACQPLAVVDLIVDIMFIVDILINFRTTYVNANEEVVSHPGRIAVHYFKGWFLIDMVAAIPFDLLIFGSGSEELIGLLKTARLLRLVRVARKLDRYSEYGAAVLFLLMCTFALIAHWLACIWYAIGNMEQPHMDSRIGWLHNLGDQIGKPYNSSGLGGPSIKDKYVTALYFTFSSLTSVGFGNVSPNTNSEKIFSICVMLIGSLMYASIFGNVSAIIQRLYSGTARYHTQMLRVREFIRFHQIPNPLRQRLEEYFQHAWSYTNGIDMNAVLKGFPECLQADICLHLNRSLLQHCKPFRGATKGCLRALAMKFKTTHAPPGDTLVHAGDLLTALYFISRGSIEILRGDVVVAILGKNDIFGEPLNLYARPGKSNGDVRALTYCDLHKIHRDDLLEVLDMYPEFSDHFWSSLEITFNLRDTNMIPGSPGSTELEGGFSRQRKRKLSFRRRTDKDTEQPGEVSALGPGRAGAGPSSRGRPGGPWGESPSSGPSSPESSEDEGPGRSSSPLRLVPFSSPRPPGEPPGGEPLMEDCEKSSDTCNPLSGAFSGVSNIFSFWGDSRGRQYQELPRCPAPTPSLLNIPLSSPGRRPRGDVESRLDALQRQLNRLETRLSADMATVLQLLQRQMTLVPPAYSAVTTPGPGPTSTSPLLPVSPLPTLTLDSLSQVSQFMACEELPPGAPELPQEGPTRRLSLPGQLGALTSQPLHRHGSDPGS

| F ([1]; dose normalized AUC0-last after IV 2 mg/kg and PO 10 mg/kg) | AUC(0-t) ([1]; rat, IV 2 mg/kg, plasma, read-out: IV AUC0-last) | Cmax ([1]; rat, PO 10 mg/kg, plasma) | AUC(0-t) ([1]; rat, PO 10 mg/kg, plasma, read-out: PO AUC0-last) | clearance ([1]; rat, plasma, IV 2 mg/kg) | half-life ([1]; rat, plasma, IV 2 mg/kg, read-out: T½ (converted)) | Vd ([1]; rat, plasma, IV 2 mg/kg, read-out: Vss) | SMILES | pIC50 (hERG channel) | IC20 (hERG channel) | hERG IC20 / TLR8 IC50 (hERG channel) | hERG IC20 / TLR9 IC50 (hERG channel) | hERG IC20 /TLR7 IC50 (hERG channel) |
| --- | --- | --- | --- | --- | --- | --- | --- | --- | --- | --- | --- | --- |
| 40% | 873 ng·h/mL | 151 ng/mL | 1750 ng·h/mL | 37 mL/min/kg | 3.78 h | 7.4 L/kg | CCc1nc(N2CCN(Cc3cnc(N4CC5(CNCCO5)C4)nc3)CC2)ccc1-c1cc(C)c(=O)n(C)c1 [Example 1, 5-[2-ethyl-6-[4-[[2-(5-oxa-2,8-diazaspiro[3.5]nonan-2-yl)pyrimidin-5-yl]methyl]piperazin-1-yl]-3-pyridyl]-1,3-dimethyl-pyridin-2-one] | < 4.70 | > 10 µM | >14285.2 | >14.2 | >1052.6 |
|  |  |  |  |  |  |  | CCc1nc(N2CCN(Cc3ccc(N4CC5(CNCCO5)C4)nc3)CC2)ccc1-c1cc(C)c(=O)n(C)c1 [Example 2, 5-[2-ethyl-6-[4-[[6-(5-oxa-2,8-diazaspiro[3.5]nonan-2-yl)-3 pyridyl]methyl]piperazin-1-yl]-3-pyridyl]-1,3-dimethyl-pyridin-2-one] | < 4.70 | > 10 µM | >33000 | >47.1 | >961.8 |
|  |  |  |  |  |  |  | CCc1nc(N2CCN(Cc3cnc(N4CC(C)(N)C4)nc3)CC2)ccc1-c1cc(C)c(=O)n(C)c1 [Example 3, 5-[6-[4-[[2-(3-amino-3-methyl-azetidin-1-yl)pyrimidin-5-yl]methyl]piperazin-1-yl]-2-ethyl-3-pyridyl]-1,3-dimethyl-pyridin-2-one] | < 4.70 | > 10 µM | >33000 | >31.4 | >724.6 |
|  |  |  |  |  |  |  | Cc1cc(-c2ccc(N3CCN(Cc4ccc(N5CCNCC5)cn4)CC3)nc2C(C)C)cn(C)c1=O [Example 7, 5-[2-isopropyl-6-[4-[(5-piperazin-1-yl-2-pyridyl)methyl]piperazin-1-yl]-3-pyridyl]-1,3-dimethyl-pyridin-2-one] | < 4.70 | 4.7 µM | 16000 | 24.4 | 940 |
